Assays:
[1] = biological target: Serine/threonine-protein kinase PAK 2 (Homo sapiens) (UniProt Q13177); test: Selectivity interaction (Kinase panel (Eurofins)) EUB0001564a PAK2; settings: at 1 µM
[2] = biological target: T1, Serine/threonine-protein kinase ULK3 (Homo sapiens) (UniProt Q6PHR2); test: Selectivity interaction (Kinase panel (DSF assay)) EUB0001559a ULK3
T1 sequence (whole entry): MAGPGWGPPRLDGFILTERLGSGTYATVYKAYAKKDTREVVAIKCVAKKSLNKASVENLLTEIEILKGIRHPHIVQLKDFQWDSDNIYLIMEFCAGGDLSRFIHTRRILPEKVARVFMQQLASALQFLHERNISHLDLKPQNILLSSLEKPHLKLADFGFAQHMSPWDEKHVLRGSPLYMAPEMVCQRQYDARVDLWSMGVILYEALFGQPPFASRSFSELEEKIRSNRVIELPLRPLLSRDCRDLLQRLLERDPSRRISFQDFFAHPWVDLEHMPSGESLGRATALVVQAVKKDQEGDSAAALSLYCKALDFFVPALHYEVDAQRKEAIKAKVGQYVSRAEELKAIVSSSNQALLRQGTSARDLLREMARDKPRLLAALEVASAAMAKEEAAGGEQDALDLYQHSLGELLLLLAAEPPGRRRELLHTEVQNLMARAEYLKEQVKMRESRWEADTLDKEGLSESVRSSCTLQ

[3] = biological target: Cyclin-dependent kinase 2 (Homo sapiens, UniProt P24941); test: Selectivity interaction (Kinase panel (literature)) EUB0001199aCl CDK2; settings: at 1 µM
[4] = biological target: Mitogen-activated protein kinase 9 (Homo sapiens, UniProt P45984); test: Selectivity interaction (KinomeScan (DiscoverX)) EUB0000655a MAPK9; settings: at 10 µM
[5] = biological target: T2, MAP/microtubule affinity-regulating kinase 4 (Homo sapiens) (UniProt Q96L34); test: Selectivity interaction (KinomeScan (DiscoverX)) EUB0001619a MARK4; settings: at 1 µM
T2 sequence (whole entry): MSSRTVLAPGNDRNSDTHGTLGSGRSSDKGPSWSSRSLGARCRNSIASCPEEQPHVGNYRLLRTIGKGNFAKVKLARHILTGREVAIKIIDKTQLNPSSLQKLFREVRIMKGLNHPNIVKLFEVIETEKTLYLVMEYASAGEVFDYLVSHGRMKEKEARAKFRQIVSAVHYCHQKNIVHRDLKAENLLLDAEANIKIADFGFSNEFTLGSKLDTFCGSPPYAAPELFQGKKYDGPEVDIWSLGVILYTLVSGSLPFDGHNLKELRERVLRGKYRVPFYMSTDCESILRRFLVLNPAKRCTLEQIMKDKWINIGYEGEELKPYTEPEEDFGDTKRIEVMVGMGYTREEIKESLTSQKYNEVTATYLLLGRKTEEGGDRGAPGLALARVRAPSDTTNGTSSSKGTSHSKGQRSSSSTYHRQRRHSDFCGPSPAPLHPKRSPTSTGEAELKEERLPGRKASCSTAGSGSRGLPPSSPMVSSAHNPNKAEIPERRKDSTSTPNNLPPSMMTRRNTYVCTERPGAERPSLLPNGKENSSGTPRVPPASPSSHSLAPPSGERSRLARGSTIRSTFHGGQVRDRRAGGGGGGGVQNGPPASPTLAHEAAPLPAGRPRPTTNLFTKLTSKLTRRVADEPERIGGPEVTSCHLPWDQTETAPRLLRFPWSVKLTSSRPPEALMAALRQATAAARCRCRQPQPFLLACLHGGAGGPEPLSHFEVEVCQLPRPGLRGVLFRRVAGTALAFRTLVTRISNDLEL

[6] = biological target: Histone-lysine N-methyltransferase SETD2 (Homo sapiens) (UniProt Q9BYW2); settings: at 10 µM
[7] = biological target: Histone-lysine N-methyltransferase 2C (Homo sapiens) (UniProt Q8NEZ4); settings: at 1 µM
[8] = biological target: Serine/threonine-protein kinase 32C (Homo sapiens) (UniProt Q86UX6); settings: at 10 µM
[9] = biological target: T3, Mitogen-activated protein kinase kinase kinase 2 (Homo sapiens) (UniProt Q9Y2U5); test: Selectivity interaction (Kinase panel (Invitrogen)) EUB0000639a MAP3K2; settings: at 200 nM
T3 sequence (whole entry): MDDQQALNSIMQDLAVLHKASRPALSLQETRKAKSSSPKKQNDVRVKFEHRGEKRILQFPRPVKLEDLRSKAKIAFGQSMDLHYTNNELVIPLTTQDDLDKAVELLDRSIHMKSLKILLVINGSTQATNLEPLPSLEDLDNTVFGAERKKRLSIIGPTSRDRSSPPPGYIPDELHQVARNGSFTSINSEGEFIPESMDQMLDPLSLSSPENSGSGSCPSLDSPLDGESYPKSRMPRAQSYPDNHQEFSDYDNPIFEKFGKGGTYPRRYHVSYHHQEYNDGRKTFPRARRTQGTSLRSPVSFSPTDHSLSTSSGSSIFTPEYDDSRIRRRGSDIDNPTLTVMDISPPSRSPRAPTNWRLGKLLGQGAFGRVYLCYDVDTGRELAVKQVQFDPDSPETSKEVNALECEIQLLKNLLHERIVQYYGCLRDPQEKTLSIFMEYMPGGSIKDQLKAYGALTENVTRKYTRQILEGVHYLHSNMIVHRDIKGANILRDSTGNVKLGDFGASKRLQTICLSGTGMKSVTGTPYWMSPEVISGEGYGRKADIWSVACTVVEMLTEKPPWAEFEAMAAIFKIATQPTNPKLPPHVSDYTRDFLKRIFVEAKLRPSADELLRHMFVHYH

[10] = biological target: Fibroblast growth factor receptor 1 (Homo sapiens, UniProt P11362); test: Selectivity interaction (KinomeScan (DiscoverX)) EUB0000229b FGFR1; settings: at 10 µM
[11] = biological target: Receptor-type tyrosine-protein kinase FLT3 (Homo sapiens) (UniProt P36888); test: Selectivity interaction (ProQinase) EUB0000171b FLT3; settings: at 1 µM
[12] = biological target: Serine/threonine-protein kinase SIK2 (Homo sapiens) (UniProt Q9H0K1); test: Selectivity interaction (ProQinase) EUB0000171b SIK2
[13] = biological target: Tyrosine-protein kinase Fgr (Homo sapiens) (UniProt P09769); test: Selectivity interaction (KinomeScan (DiscoverX)) EUB0001049a FGR; settings: at 1 µM
[14] = biological target: Tyrosine-protein kinase SYK (Homo sapiens, UniProt P43405); test: Selectivity interaction (KinomeScan (DiscoverX)) EUB0001049a SYK; settings: at 1 µM
[15] = biological target: Mitogen-activated protein kinase 10 (Homo sapiens, UniProt P53779); test: Selectivity interaction (Kinase panel (Z-LYTE Assay)) EUB0001632a MAPK10; settings: at 10 µM
[16] = biological target: Casein kinase II subunit alpha (Homo sapiens, UniProt P68400); test: Selectivity interaction (Kinase panel (Z-LYTE Assay)) EUB0001632a CSNK2A1; settings: at 10 µM
[17] = biological target: Serine/threonine-protein kinase SIK2 (Homo sapiens) (UniProt Q9H0K1); test: Selectivity interaction (KinomeScan (DiscoverX)) EUB0000695a SIK2; settings: at 100 nM
[18] = biological target: Glycogen synthase kinase-3 alpha (Homo sapiens, UniProt P49840); test: Selectivity interaction (KinomeScan (DiscoverX)) EUB0000695a GSK3A; settings: at 100 nM
Sequence of Glycogen synthase kinase-3 alpha (P49840 2-483 limits assumed): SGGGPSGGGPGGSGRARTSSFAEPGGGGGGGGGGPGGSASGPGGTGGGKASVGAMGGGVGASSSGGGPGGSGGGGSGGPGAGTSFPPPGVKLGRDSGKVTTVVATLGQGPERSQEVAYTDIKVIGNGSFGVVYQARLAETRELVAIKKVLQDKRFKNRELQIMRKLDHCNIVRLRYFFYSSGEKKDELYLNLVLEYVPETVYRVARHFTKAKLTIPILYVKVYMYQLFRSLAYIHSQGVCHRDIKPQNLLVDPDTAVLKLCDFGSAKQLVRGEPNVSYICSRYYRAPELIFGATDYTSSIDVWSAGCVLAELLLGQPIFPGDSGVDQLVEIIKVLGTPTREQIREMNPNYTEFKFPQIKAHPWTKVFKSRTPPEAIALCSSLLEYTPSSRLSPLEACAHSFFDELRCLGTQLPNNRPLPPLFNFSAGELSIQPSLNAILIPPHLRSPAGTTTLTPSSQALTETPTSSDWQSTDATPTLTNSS

Sequence of Serine/threonine-protein kinase SIK2 (Homo sapiens) (Q9H0K1 whole entry, looked up): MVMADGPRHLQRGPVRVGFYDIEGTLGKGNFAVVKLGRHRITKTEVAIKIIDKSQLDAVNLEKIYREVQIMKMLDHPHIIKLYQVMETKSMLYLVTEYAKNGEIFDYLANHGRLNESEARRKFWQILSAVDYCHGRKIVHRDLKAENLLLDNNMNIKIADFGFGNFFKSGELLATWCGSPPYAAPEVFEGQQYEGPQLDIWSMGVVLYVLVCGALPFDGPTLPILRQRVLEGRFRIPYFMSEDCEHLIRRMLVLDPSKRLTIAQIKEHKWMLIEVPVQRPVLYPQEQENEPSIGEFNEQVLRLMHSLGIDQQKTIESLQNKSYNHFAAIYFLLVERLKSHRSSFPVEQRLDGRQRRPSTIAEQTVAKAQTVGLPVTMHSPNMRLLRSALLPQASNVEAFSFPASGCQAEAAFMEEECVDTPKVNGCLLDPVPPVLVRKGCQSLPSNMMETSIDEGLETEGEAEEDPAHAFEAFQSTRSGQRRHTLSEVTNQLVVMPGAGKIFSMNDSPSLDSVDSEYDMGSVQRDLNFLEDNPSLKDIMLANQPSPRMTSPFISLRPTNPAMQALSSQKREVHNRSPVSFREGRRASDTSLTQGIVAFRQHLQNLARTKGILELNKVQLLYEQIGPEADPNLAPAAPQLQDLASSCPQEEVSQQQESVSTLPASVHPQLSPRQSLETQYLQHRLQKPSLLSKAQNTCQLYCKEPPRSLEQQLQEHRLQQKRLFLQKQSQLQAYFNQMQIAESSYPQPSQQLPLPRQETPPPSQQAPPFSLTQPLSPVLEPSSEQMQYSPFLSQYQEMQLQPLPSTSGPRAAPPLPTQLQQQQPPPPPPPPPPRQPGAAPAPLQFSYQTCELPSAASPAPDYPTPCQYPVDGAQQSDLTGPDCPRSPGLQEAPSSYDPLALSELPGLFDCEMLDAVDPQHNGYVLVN
Sequence of Serine/threonine-protein kinase 32C (Homo sapiens) (Q86UX6 whole entry): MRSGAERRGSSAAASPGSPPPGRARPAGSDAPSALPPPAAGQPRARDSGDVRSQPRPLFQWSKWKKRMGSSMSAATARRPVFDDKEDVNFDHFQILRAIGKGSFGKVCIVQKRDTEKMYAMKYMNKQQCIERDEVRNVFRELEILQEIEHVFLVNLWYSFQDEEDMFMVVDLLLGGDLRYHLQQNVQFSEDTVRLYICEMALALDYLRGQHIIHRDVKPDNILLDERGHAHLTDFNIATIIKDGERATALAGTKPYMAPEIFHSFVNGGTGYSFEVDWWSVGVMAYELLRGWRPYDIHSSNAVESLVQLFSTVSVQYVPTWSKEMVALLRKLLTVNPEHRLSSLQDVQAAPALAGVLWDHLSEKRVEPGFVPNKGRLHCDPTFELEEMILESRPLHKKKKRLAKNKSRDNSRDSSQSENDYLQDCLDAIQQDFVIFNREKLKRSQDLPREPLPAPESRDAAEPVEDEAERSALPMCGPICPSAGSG
Sequence of Histone-lysine N-methyltransferase SETD2 (Homo sapiens) (Q9BYW2 whole entry): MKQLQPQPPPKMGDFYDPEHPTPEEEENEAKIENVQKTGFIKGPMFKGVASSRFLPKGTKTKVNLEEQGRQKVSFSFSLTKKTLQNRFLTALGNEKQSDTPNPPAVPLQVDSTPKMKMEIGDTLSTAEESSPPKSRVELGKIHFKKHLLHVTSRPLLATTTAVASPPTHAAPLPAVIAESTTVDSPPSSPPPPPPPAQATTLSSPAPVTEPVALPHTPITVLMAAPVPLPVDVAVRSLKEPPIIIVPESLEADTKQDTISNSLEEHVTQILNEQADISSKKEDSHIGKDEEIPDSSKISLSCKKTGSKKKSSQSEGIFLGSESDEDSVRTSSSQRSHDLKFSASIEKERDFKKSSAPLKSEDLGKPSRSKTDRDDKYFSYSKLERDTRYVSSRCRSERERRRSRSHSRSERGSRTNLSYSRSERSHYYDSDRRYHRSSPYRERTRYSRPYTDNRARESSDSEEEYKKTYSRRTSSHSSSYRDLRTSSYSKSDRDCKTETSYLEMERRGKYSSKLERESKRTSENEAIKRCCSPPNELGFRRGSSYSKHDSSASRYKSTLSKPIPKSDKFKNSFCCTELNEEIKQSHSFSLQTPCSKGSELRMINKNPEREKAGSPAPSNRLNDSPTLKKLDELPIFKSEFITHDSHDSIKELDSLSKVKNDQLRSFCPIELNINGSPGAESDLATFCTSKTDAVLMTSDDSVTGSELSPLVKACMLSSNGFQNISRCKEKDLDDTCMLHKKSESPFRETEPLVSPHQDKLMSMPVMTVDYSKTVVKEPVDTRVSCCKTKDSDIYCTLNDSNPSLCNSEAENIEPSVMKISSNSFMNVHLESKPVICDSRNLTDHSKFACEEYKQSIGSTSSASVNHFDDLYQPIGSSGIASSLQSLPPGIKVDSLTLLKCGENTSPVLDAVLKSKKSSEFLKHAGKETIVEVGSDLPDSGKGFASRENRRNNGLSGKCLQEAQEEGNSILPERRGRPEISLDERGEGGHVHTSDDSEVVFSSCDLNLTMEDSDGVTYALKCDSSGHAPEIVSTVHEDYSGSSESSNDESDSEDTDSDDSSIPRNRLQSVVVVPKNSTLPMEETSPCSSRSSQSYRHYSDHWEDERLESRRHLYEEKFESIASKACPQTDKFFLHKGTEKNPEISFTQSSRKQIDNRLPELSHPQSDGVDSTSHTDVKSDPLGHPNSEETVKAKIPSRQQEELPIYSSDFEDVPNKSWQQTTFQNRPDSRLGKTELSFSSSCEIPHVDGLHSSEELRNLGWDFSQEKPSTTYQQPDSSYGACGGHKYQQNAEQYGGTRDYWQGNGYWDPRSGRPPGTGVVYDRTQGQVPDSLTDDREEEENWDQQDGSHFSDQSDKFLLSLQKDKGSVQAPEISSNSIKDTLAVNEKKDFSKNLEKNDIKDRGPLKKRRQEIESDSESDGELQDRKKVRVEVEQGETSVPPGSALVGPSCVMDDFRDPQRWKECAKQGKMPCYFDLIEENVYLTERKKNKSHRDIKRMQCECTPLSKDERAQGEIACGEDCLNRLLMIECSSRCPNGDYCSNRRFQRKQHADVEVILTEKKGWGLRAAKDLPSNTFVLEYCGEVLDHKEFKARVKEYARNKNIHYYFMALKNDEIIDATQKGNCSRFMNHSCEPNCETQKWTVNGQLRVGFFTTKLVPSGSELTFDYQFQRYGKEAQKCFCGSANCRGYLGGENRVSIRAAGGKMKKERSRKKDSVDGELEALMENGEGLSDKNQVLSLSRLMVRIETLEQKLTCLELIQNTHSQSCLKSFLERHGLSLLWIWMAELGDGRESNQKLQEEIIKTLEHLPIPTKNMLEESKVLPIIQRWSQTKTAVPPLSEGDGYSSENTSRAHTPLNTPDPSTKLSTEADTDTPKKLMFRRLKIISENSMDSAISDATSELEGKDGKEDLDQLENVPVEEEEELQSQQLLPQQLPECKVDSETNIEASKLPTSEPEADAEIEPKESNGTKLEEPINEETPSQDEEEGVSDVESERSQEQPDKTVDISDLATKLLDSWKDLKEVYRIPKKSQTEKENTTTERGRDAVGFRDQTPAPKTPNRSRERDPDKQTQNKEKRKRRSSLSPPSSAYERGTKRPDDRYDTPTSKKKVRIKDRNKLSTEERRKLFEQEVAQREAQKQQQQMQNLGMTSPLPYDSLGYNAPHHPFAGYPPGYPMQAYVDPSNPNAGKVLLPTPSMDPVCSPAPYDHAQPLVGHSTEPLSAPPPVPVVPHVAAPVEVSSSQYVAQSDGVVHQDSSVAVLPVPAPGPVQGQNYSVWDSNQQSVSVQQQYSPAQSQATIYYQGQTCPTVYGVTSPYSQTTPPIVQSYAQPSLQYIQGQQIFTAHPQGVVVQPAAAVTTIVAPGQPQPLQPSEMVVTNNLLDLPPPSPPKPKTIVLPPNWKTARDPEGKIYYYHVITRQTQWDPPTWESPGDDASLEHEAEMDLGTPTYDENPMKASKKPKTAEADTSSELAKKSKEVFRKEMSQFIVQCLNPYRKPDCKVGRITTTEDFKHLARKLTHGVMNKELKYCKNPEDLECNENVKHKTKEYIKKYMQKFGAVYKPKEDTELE
Sequence of Serine/threonine-protein kinase PAK 2 (Homo sapiens) (Q13177 whole entry): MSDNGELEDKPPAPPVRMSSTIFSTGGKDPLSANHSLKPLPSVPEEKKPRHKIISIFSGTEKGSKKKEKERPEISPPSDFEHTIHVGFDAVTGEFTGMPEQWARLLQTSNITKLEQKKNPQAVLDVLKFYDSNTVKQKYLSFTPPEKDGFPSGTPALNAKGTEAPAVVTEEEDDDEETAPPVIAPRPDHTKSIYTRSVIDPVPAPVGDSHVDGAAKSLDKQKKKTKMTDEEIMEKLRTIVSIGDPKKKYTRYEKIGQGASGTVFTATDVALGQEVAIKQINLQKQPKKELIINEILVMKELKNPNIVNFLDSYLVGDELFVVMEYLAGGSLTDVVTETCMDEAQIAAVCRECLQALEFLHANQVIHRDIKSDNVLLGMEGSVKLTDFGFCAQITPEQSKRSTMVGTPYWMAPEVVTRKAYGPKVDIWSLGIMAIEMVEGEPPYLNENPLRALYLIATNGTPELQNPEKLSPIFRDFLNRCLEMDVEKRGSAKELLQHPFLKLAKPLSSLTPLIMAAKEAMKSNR

CC[C@@H](Nc1c(C#N)c(-c2ccc(-c3cccc(C)c3F)cc2)nc2cnccc12)C(=O)O [BAY-091]
% of inhibition [1]: 24.9%

CN(C(=O)c1cnn2cccnc12)c1cc2c(cc1N1CCOCC1)C(=O)N(C[C@@H](F)C(C)(C)O)C2
dTM [2]: -0.5 K

CN1Cc2nccc(-c3cn(C)nc3-c3ccc(F)cc3)c2C1=O
% of inhibition [3]: 4%

CN(C)CCOc1ccc(-c2nc(-c3ccncc3)c(-c3ccc4c(c3)CC/C4=N\O)[nH]2)cc1
% of control [4]: 5.1%

N#Cc1cccc(-c2c[nH]c3ncnc(N4CCOCC4)c23)c1
% of control [5]: 82%

CNCCN1CCC(c2cc(CN(C)C(=O)c3cccc(Oc4ccccc4)c3)ccn2)CC1
% activity [6]: > 90% | % activity [7]: > 90%

Cc1cc([C@@H](C)Nc2ccccc2C(=O)O)c2nc(N3CCOCC3)cc(=O)n2c1 [AZD-6482]
% of control [8]: 82%

CC[C@@H]1[C@H](F)C(=O)N[C@@H]1COc1nccc2cc(C(N)=O)c(OC)cc12 [ZIMLOVISERTIB]
% of inhibition [9]: -4.03%

COc1cc(N(C)c2ccnc3ccc(C(F)(F)F)cc23)cc(OC)c1OC
% binding [10]: 99%

C=CC(=O)Nc1cccc(C(=O)Nc2ccc(Nc3cc(-c4[nH]c(SC)nc4C)ccn3)cc2)c1
% of control [11]: 94% | % of control ([12]; at 1 µM): 108% | % of control ([12]; at 5 µM): 90%

COc1cc(Nc2nc(C)cc(-c3cnn4nc(OC)ccc34)n2)cc(C(F)(F)F)c1
% of control [13]: 94% | % of control [14]: 100%

Cn1cc(-n2cnc3c(NCc4nc5cc(Cl)c(Cl)cc5[nH]4)nc(N4CCOCC4)nc32)cn1
% of control [15]: 3.04% | % of control [16]: -3.76%

Cc1cc(F)c(C(=O)Nc2cccc(-c3nncn3C(C)C)n2)cc1-n1cnc(C2CC2)c1
% of control [17]: 100% | % of control [18]: 80%

— ChEMBL document CHEMBL5465560, “Selectivity Literature for EUbOPEN Chemogenomic Library” (2024)
